Here are results for 1 compound from publication PMC11847541, “Liver fatty acid binding protein FABP1 transfers substrates to cytochrome P450 4A11 for catalysis” (The Journal of Biological Chemistry, 2025).

In one series the target is T1, P450 4A11 (Homo sapiens, UniProt Q02928).
T1 sequence (Q02928 5-519): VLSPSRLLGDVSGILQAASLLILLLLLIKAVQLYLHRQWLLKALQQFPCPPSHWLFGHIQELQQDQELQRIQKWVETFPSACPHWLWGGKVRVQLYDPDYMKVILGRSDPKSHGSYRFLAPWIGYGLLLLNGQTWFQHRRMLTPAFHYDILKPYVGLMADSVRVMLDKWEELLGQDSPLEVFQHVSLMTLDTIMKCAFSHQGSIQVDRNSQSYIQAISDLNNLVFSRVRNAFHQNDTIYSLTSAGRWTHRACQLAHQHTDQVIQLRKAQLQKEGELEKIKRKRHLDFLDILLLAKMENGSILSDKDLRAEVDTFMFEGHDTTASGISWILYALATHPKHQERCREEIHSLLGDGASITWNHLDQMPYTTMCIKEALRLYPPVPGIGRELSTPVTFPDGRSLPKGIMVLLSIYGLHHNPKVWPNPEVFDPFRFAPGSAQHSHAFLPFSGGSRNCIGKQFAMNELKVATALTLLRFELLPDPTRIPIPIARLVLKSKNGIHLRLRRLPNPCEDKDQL
In words: Equilibrium binding titrations of P450 4A11 with lipids (heme Soret spectral shift). Particulars: P450 1 µM, DAUDA 1 nM to 10 µM.

Series [1] can be described thus: Stability of DAUDA stock solutions. It is filed as physicochemical. The procedure: DAUDA stock solutions (10 mM, prepared in C2H5OH) could be stored at −20 °C for up to 1 week with no significant decay of the UV spectrum and no formation of degradation peaks in the LC–MS chromatogram. Storage under these conditions for more than 1 week did compromise sample integrity (and the samples were discarded). We later observed that DAUDA stock solutions (10 mM) prepared in 50 mM K2CO3 and frozen at −80 °C could undergo several freeze–thaw cycles over the course of 2 months with no significant decay of the UV spectrum and no formation of degradation peaks in the LC–MS chromatogram.

Series [2] addresses T2, FABP1 (Homo sapiens, UniProt P07148).
T2 construct: GST (N, cleaved yes); made in house; host or cells: Escherichia coli DH5α
T2 sequence (P07148 with tags, fused parts or gaps): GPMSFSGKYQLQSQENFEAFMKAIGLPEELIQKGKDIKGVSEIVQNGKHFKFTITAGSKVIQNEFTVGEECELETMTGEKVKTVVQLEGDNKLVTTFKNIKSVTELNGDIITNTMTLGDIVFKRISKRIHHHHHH
In words: Stopped-flow kinetics of DAUDA binding to FABP1. The procedure: In order to measure the rate of binding of DAUDA to FABP1, four concentrations (0.5–12.5 μM) of DAUDA were rapidly mixed with FABP1 (0.5 μM), and the gain of fluorescence (at 482 nm, Fig. 4A) was monitored over time (Fig. 6, A–D). […] A kon value (k4) of 9.0 ± 0.2 × 10^7 M^−1 s^−1 was calculated from the data (see the Experimental procedures section) (Fig. 6F).
Figure 6 Kinetics of binding of DAUDA to FABP1. FABP1 (0.5 μM) was mixed with (A) 0.5 μM, (B) 2.5 μM, (C) 5 μM, and (D) 12.5 μM DAUDA to yield the binding traces shown. DAUDA–FABP1 was excited (λex = 335 nm) as in Fig. 4 and total fluorescence signal >420 nm was collected. Data were fit to double exponential curves, and (E) the rate of the fast phase was extracted and plotted against DAUDA concentration. The data curve was fit to a Michaelis–Menten-type hyperbola. Each trace corresponds to ≥6 averaged replicate traces. In part A, the binding of DAUDA (0.5 μM) was proportional to the disappearance of protein (0.5 μM). The reciprocal concentration of FABP1 was plotted against time in part F, and the slope of the linear portion (linear regression in red) of that curve ([77]) gave an on-rate (kon) of 9.0 × 10^7 M^−1 s^−1. DAUDA, 11-dansylaminoundecanoic acid; FABP1, fatty acid binding protein.
Determination of the DAUDA on-rate (kon) to FABP1 was performed by mixing FABP1 (1 μM) and DAUDA ([…], see “Preparation of DAUDA stock solutions”) solutions (both in 100 mM potassium phosphate buffer, pH 7.4) in equal proportion (yielding a twofold dilution of all reaction components) using an OLIS stopped-flow spectrofluorometer with the parameters set as described earlier (see “P450 4A11 kon determinations”). […] At least six replicate measurements were recorded, the spectra were processed such that the fluorescence gain (from DAUDA binding) began at an (x, y) intercept of (0, 0), and the spectra were averaged and fit to double exponential plots in GraphPad Prism, and the rates for the fast (kon) and slow phases of binding were extracted. Then, as the first experiment was recorded by mixing equimolar (1 μM) concentrations of FABP1 and DAUDA and the binding was rapid, we approximated the binding as 2A → C (i.e., mathematically equivalent to A + B → C when the depletion of B is equal to the depletion of A ([77])). We plotted [FABP]^−1 as a function of time and fit the data to a linear equation (the slope of which is kon).

Series [3] concerns the target T2, FABP1. The series can be described thus: Fluorescence titration of DAUDA with FABP1 (reverse titration). The class given is binding. Particulars: DAUDA 50 nM, FABP1 titrated, quadratic fit. The procedure: Binding of DAUDA to FABP1 was assessed in a “reverse titration” where FABP1 was titrated into a fixed concentration of DAUDA (50 nM), yielding a characteristic gain of fluorescence (Fig. 4A) at 482 nm. FABP1 was titrated into a solution of DAUDA (“reverse titration”) and not vice versa because of the intrinsic fluorescence of DAUDA (Fig. S11E), which overlaps with the spectrum of DAUDA–FABP1 (Fig. 4A). The intrinsic fluorescence of DAUDA was generally only problematic at concentrations much higher (>500 nM) than used in the assays (50 nM), though we sought to eliminate this additional variable by performing the reverse titration to estimate the Kd.
Figure 4 Fluorescence titration of DAUDA with FABP1 (“reverse” titration).A, fluorescence spectra (λex = 335 nm) of DAUDA (0.05 μM) collected with increasing concentrations of FABP1 (0–1.25 μM). The binding of DAUDA to FABP1 is accompanied by a gain of fluorescence, indicated with an arrow. B, titration curve calculated with data points (n = 1) at the observed fluorescence maximum (482 nm) and plotted versus concentration of FABP1. Data were fit to a quadratic equation. DAUDA, 11-dansylaminoundecanoic acid; FABP1, fatty acid binding protein. […]

The target in series [4] is T2, FABP1. Particulars: cited from earlier work.

Entries after “also recorded” stand apart in the source; their conditions may differ. Read-outs that look alike come from different tables or passages of the source.

Method for P450 4A11: Affinity of palmitate and 16-OH palmitate for P450 4A11 (1 μM) was assessed by monitoring the blue shift (from ∼420 nm to ∼390 nm) of the P450 heme Soret band as a substrate binds and displaces the sixth axial heme ligand (H2O) to yield pentacoordinated heme (“type I” shift) ([26]).
P450 4A11 (1 μM) was titrated with (A) palmitate and (B) 16-OH palmitate in a 1.0 cm pathlength cell. Difference plots were calculated from absorbance maxima (∼390 nm) and minima (∼420 nm), and the data were fit to a hyperbolic equation. The insets in each panel are the difference spectra between a cuvette that received the lipid substrate and a cuvette that received solvent alone. Each data point corresponds to one independent replicate.
Equilibrium binding titrations with P450 4A11 (1 μM) were performed in buffer (100 mM potassium phosphate [pH 7.4]) as described previously ([44], [56]). Briefly, a baseline was first acquired on an OLIS-Cary 14 spectrophotometer set to scan from 350 to 500 nm in 1 cm glass cuvettes. […] The cuvettes were mixed with a plumper after additions, and spectra were recorded. The spectra were exported into Microsoft Excel software, and the absorbance values at 418 nm were subtracted from those at 390 nm and the values were plotted as a function of lipid concentration.
Titration of P450 4A11 with DAUDA. The P450 concentration was 1 µM and the DAUDA concentration was varied using a geometric series from 1 nM to 10 µM. […] The increase in absorbance in the UV region is due to the strong chromophore in the DAUDA dansyl moiety (Fig. S8).

In the case of `CN(C)c1cccc2c(S(=O)(=O)NCCCCCCCCCCC(=O)O)cccc12` [DAUDA, 11-dansylaminoundecanoic acid], at P450 4A11, the “binding to P450 4A11 (type I spectral shift)” value is reported as “not detected; also recorded: did not bind”. Also, the “storage time with no significant decay of UV spectrum and no degradation peaks” value in series [1] (10 mM in 50 mM K2CO3, −80 °C, several freeze–thaw cycles) is on record as 2 months; in series [1] (10 mM in C2H5OH, −20 °C), “up to 1 week”. Further, on FABP1 [2] (FABP1 0.5 μM, DAUDA 0.5 μM, read-out: kon of DAUDA to FABP1 (k4)), the kon is 9e+07 M⁻¹ s⁻¹. Besides, at FABP1 [2] (calculated from kon and Kd), the koff is 5 s⁻¹. Further, the “koff from FABP1 relative to koff from P450 4A11” value at FABP1 [2] (faster) is 25 fold. Besides, on FABP1 [2] (faster), the “kon of DAUDA to FABP1 relative to palmitate binding to P450 4A11” value is recorded as greater than 2000 fold. Further, the Kd on FABP1 [3] is 56 nM; at FABP1 [4] (human ortholog, high-affinity site, read-out: Kd,1), 200 nM; on FABP1 [4] (human ortholog, low-affinity site, read-out: Kd,2), greater than 3300 nM; on FABP1 [4] (literature estimate, high-affinity site, read-out: Kd) it was greater than 460 nM.

The term kon denotes the rate constant with which the complex forms. The koff is the first-order rate constant of dissociation. The term Kd denotes the free concentration of one partner at which half of the binding sites on the other are occupied at equilibrium, for simple one-to-one binding.
